Results from the NIST ThermoML archive (doi:10.1016/j.jct.2018.12.013).

Settings: Liquid, Gas chromatography

C=CC(=C)CCC=C(C)C [2-methyl-6-methylene-2,7-octadiene]
Settings	vapor or sublimation pressure [kPa]
287.7 K	0.1
297.15 K	0.21
298.15 K	0.22
313.2 K	0.57
320.4 K	0.87
323.2 K	1
328.2 K	1.3
330 K	1.5
333.3 K	1.8
338.2 K	2.3
340.2 K	2.5
343.5 K	2.9
348.2 K	3.7
353.2 K	4.6
353.4 K	4.6
355.8 K	5.2
358.2 K	5.7
360 K	6.2
363.3 K	7.1
365.8 K	7.9
366.2 K	8
370 K	9.4
371.9 K	10
379.2 K	13
385 K	17
390 K	20
399.2 K	27
410 K	38
418.2 K	49
421.5 K	54
428.2 K	65
433.5 K	76
439.1 K	90
444.7 K	101

CC1(C)C2=CCCC(C)(C)[C@]23CC[C@H]1C3 [(-)-isolongifolene]
Settings	vapor or sublimation pressure [kPa]
298.15 K	0.0043
310 K	0.011
320 K	0.023
330 K	0.046
340 K	0.086
350 K	0.16
360 K	0.27
370 K	0.46
378.2 K	0.69
380.2 K	0.76
386.2 K	1
388.2 K	1.1
392.2 K	1.3
393.2 K	1.4
395 K	1.5
400 K	1.8
410 K	2.8
419.2 K	4
424.2 K	4.8
430 K	6
440 K	8.5
450 K	11.8
460 K	16
470 K	22
480 K	29
490 K	38
500 K	50
510 K	63.88
520 K	81
527 K	95.41
528.2 K	100
529.6 K	101
